# Data: BindingDB's records for doi:10.1111/cbdd.12842 (Jagiellonian University Medical College, 2017)
# Where a name gives a salt, the structure may show the parent alone.
# Molecular target: T1, 5-hydroxytryptamine receptor 1A (Homo sapiens, UniProt P08908)
# T1 sequence (P08908 whole entry): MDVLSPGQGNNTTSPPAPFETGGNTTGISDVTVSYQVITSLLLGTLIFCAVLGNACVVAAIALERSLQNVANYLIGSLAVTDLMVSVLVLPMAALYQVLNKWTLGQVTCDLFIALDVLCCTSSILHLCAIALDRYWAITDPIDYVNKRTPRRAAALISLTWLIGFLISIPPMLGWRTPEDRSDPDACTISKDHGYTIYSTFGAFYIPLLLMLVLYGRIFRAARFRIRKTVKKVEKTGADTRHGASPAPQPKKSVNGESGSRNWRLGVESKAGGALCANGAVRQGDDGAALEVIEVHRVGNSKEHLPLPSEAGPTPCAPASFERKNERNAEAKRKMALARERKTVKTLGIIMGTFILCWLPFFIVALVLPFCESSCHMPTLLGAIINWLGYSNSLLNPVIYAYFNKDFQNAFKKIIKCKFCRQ
# Assay: Radioligand Binding Assay ([3H]-8-OH-DPAT)
# Conditions: pH 7.4
# Method: Binding experiments were conducted in 96-well microplates in a total volume of 250 μL of buffer (50 mM Tris-HCl pH 7.4, 10 mM MgCl2, 0.5 mM EDTA). Reaction mix included 50 μL solution of test compound, 50 μL of [3H]-8-OH-DPAT, and 150 μL of diluted membranes or the tissue suspension. Incubation condition: 60 min at 27 °C.
row,SMILES,Ki [nM]
1,"CCC(O)CNCCOc1ccc2oc3ccccc3c(=O)c2c1 (stereo not drawn) [R,S-2-{2-[(2-hydroxybutyl)amino]ethoxy}-9H-xanthen-9-one hydrochloride (8a)]",320
2,"CCC(CO)NCCCOc1ccc2oc3ccccc3c(=O)c2c1 (stereo not drawn) [R,S-2-{3-[(1-hydroxybutan-2-yl)amino]propoxy}-9H-xanthen-9-one (12)]",> 5000
3,"CCC(CO)NCCOc1ccc2oc3ccccc3c(=O)c2c1 (stereo not drawn) [R,S-2-{2-[(1-hydroxybutan-2-yl]amino)ethoxy}-9H-xanthen-9-one (9)]",659
